Consider 8 compounds from ChEMBL document CHEMBL1811807, “Evaluation of influence of Ap4A analogues on Fhit-positive HEK293T cells; cytotoxicity and ability to induce apoptosis” (Bioorg Med Chem, 2011).

The source made the active and inactive calls. The calls are words filed in the database; no cut-off is given here. Where only a bound is given, the exact number is not on record here.

Series [1] is described as follows: Stability in medium collected from human HEK293T cells assessed as intact compound level at 1 mM incubated up to 48 hrs at 37 degC. In kind it is ADME, cell-based, HEK-293T. To be noted: read-out: Stability.
The subject of series [2] is HEK-293T. In words: Cytotoxicity in Fhit-positive HEK293T cells after 72 hrs bu MTT assay. In kind it is functional, cell-based. Particulars: Homo sapiens. In general terms: Tetrazolium assays rely on reduction of a dye to a coloured formazan, in cell work by metabolically active cells.
Series [3] has as its target Bis(5'-adenosyl)-triphosphatase (Homo sapiens, UniProt P49789). Kind of series: Inhibition of Fragile histidine triad protein hydrolytic activity.
A short description of series [4]: Stability in human HEK293T cellular extract assessed as intact compound level at 1 mM incubated after 48 hrs at 37 degC. In kind it is ADME, cell-based, HEK-293T. Particulars: read-out: Stability.
Series [5] concerns HEK-293T. Kind of series: Induction of apoptosis in Fhit-positive HEK293T cells assessed as caspase-3 activation at 5 uM in presence of Fhit-specific siRNA after 18 hrs by fluorescent assay. In kind it is functional, cell-based. To be noted: Homo sapiens.
Series [6] deals with HeLa. In words: Cytotoxicity in Fhit-negative human HeLa cells after 72 hrs bu MTT assay. In kind it is functional, cell-based.
Series [7] concerns HEK-293T. Kind of series: Induction of apoptosis in Fhit-positive HEK293T cells assessed as caspase-3 activation at 5 uM after 18 hrs by fluorescent assay. In kind it is functional, Homo sapiens.
Series [8] relates to HEK-293T. In words: Induction of apoptosis in Fhit-positive HEK293T cells assessed as caspase-3 activation at 0.5 to 5 uM after 18 hrs by fluorescent assay. In kind it is functional, Homo sapiens.
For series [9], the system named is HEK-293T. In words: Induction of apoptosis in Fhit-positive HEK293T cells assessed as caspase-3 activation at 0.5 to 1 uM after 18 hrs by fluorescent assay. In kind it is functional, Homo sapiens.
Series [10] relates to HEK-293T. Kind of series: Induction of apoptosis in Fhit-positive HEK293T cells assessed as caspase-3 activation at 5 to 10 uM after 18 hrs by fluorescent assay. In kind it is functional, cell-based. Particulars: Homo sapiens.
Series [11] relates to HEK-293T. In words: Induction of apoptosis in Fhit-positive HEK293T cells at 5 uM after 24 hrs by Annexin-V assay (reference value: 3.9 +/- 0.95%). In kind it is functional, Homo sapiens.
The test system of series [12] is HEK-293T. Kind of series: Induction of apoptosis in Fhit-positive HEK293T cells assessed as caspase-8 activation at 5 uM after 18 hrs by luminescent assay. In kind it is functional, Homo sapiens.
Series [13] relates to A549. Kind of series: Cytotoxicity in Fhit-negative human A549 cells after 72 hrs bu MTT assay. In kind it is functional, cell-based. Particulars: A549, 72 h.
The subject of series [14] is HEK-293T. Kind of series: Induction of apoptosis in Fhit-positive HEK293T cells assessed as caspase-9 activation at 5 uM after 18 hrs by luminescent assay. In kind it is functional, Homo sapiens.
Series [15] concerns HL-60. In words: Cytotoxicity in human HL60 cells after 72 hrs bu MTT assay. In kind it is functional, cell-based. To be noted: HL-60, 72 h.
For series [16], the system named is HEK-293T. Kind of series: Induction of apoptosis in Fhit-positive HEK293T cells at 20 uM by Annexin-V assay (reference value: 3.9 +/- 0.95%). In kind it is functional, Homo sapiens.
Series [17] relates to HEK-293T. Kind of series: Induction of apoptosis in Fhit-positive HEK293T cells assessed as caspase-8 activation at 5 uM in presence of Fhit-specific siRNA after 18 hrs by fluorescent assay. To be noted: Homo sapiens. In kind it is functional, cell-based.
Series [18] concerns HEK-293T. In words: Induction of apoptosis in Fhit-positive HEK293T cells at 5 uM after 48 hrs by Annexin-V assay (reference value: 3.9 +/- 0.95%). In kind it is functional, Homo sapiens.
Series [19] in a line: Stability in HEK293T cellular extract assessed as compound degradation level at 1 mM incubated after 48 hrs at 37 degC. In kind it is ADME, HEK-293T. Particulars: human, read-out: Activity.
Series [20] can be described thus: Stability in medium collected from human HEK293T cells assessed as compound degradation level at 1 mM incubated up to 48 hrs at 37 degC. In kind it is ADME, cell-based, HEK-293T. Particulars: read-out: Activity.
Series [21] is described as follows: Drug uptake in Fhit-positive HEK293T cells cytoplasmic compartment at 7.5 uM after 24 hrs using fluorescein labeled compound. Particulars: human, hek-293t. In kind it is ADME, cell-based.
Series [22] in a line: Drug uptake in Fhit-positive HEK293T cells at 7.5 uM after 24 hrs using fluorescein labeled compound. In kind it is ADME, cell-based. Particulars: human, hek-293t.
A short description of series [23]: Drug uptake in Fhit-positive HEK293T cells Vesicular structures compartment at 7.5 uM after 24 hrs using fluorescein labeled compound. In kind it is ADME, cell-based. To be noted: human, hek-293t.

Bis(5'-adenosyl)-triphosphatase, sequence (P49789 whole entry): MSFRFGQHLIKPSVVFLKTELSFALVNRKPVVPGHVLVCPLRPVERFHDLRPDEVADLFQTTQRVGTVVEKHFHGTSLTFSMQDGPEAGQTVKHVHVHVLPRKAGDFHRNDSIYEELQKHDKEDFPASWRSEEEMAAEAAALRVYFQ

As a reminder, the IC50 is the midpoint of a concentration-inhibition curve. Lower therefore signals higher potency. For orientation: Ki means a dissociation constant, usually derived from enzyme kinetics or from competition with a known ligand. Turning to `Nc1ncnc2c1ncn2[C@@H]1O[C@H](COP(=O)(S)OCC(COP(=O)(S)OC[C@H]2O[C@@H](n3cnc4c(N)ncnc43)[C@H](O)[C@@H]2O)OP(=O)(O)S)[C@@H](O)[C@H]1O` (mixture of isomers), the remaining at 48 h, 1000 µM in series [1] amounted to 97%. The compound further registered an IC50 in [2] greater than 80 µM. Besides, the Ki in series [3] amounted to 35 nM.

Take `Nc1ncnc2c1ncn2[C@@H]1O[C@H](COP(=O)(S)OCC(COP(=O)(S)OC[C@H]2O[C@@H](n3cnc4c(N)ncnc43)[C@H](O)[C@@H]2O)OP(=O)(S)OC[C@H]2O[C@@H](n3cnc4c(N)ncnc43)[C@H](O)[C@@H]2O)[C@@H](O)[C@H]1O` (mixture of isomers): the remaining at 48 h, 1000 µM in series [1] came out at 97%. This compound yielded a half-inhibitory concentration (IC50) in [2] greater than 80 µM. In addition, the Ki in [3] came to 35 nM.

As for `Nc1ncnc2c1ncn2[C@@H]1O[C@H](COP(=O)(S)OCC(O)COP(=O)(S)OC[C@H]2O[C@@H](n3cnc4c(N)ncnc43)[C@H](O)[C@@H]2O)[C@@H](O)[C@H]1O` (mixture of isomers), the remaining at 48 h, 1000 µM in [4] came to 90%; in [1] it was 97%. Moreover, the outcome in series [5], in series [10] and in [17] was inactive. Moreover, the concentration for half-maximal inhibition (IC50) in series [2] was 17.5 µM; in series [6], greater than 80 µM; in [13] it was greater than 80 µM; in series [15], 9 µM. In addition, the Activity in series [7] is on record as 27%; in series [8], 17%; in series [9], 10%; in series [11] it was 10.5%; in series [12] it was 23%; in [14], 21%. Further, the Activity in [16] turned out to be 12.27%; in [18], 14.24%. The Ki in series [3] amounted to 35 nM.

As to `Nc1ncnc2c1ncn2[C@@H]1O[C@H](COP(=O)(O)OP(=O)(O)OP(=O)(O)OP(=O)(O)OC[C@H]2O[C@@H](n3cnc4c(N)ncnc43)[C@H](O)[C@@H]2O)[C@@H](O)[C@H]1O` [DIADENOSINE TETRAPHOSPHATE], the remaining at 48 h, 1000 µM in series [1] was determined as 95%. Further, in series [19], the metabolised at 48 h, 1000 µM turned out to be 92.8%. Also, the degraded at 48 h, 1000 µM in [20] was determined as 95%.

Regarding `Nc1ncnc2c1ncn2[C@@H]1O[C@H](COP(=O)(S)OCC(COP(=O)(S)OC[C@H]2O[C@@H](n3cnc4c(N)ncnc43)[C@H](O)[C@@H]2O)(COP(=O)(S)OC[C@H]2O[C@@H](n3cnc4c(N)ncnc43)[C@H](O)[C@@H]2O)COP(=O)(S)OC[C@H]2O[C@@H](n3cnc4c(N)ncnc43)[C@H](O)[C@@H]2O)[C@@H](O)[C@H]1O` (mixture of isomers), in [1], the remaining at 48 h, 1000 µM was found to be 97%. Moreover, the IC50 in [2] was greater than 80 µM. In series [3], the affinity, expressed as Ki, was 35 nM.

Take `Nc1ncnc2c1ncn2[C@@H]1O[C@H](COP(=O)(O)OP(=O)(O)OP(=O)(O)OC[C@H]2O[C@@H](n3cnc4c(N)ncnc43)[C@H](O)[C@@H]2O)[C@@H](O)[C@H]1O`: the remaining at 48 h, 1000 µM in [1] is 95%. The metabolised at 48 h, 1000 µM in [19] was found to be 88.7%. In addition, the degraded at 48 h, 1000 µM in series [20] stood at 95%.

Take `Nc1ncnc2c1ncn2[C@@H]1O[C@H](COP(=O)(S)OCC(O)COP(=O)(S)OCCCCCCNC(=O)c2ccc3c(c2)C2(OC3=O)c3ccc(O)cc3Oc3cc(O)ccc32)[C@@H](O)[C@H]1O` (some centres undefined): the Drug uptake result in series [21], in series [22] and in series [23] was “Active” in each case.

Regarding `Nc1ncnc2c1ncn2[C@@H]1O[C@H](COP(=O)(S)OCC(COP(=O)(O)S)(COP(=O)(S)OC[C@H]2O[C@@H](n3cnc4c(N)ncnc43)[C@H](O)[C@@H]2O)COP(=O)(S)OC[C@H]2O[C@@H](n3cnc4c(N)ncnc43)[C@H](O)[C@@H]2O)[C@@H](O)[C@H]1O` (mixture of isomers), the remaining at 48 h, 1000 µM in [1] was 97%. This compound also gave a half-inhibitory concentration (IC50) in [2] greater than 80 µM. For the same compound, the inhibition constant Ki in series [3] was 35 nM.
